Reference: patent US20160166604A1, “Thiol-Sensitive Positive Inotropes” (priority 2005, published 2016)
“Also recorded” adds a separate entry of the source.

How the values were obtained:
RyR2 = biological target: T1, RyR2 (Mus musculus, UniProt E9Q401); test: Spontaneous Ca2+ sparks and spark frequency in intact murine myocytes; type: cell-based
T1 construct: endogenous in cells; host or cells: freshly isolated adult mouse cardiac myocytes
Experimental: Freshly isolated mouse cardiac myocytes were loaded with the Ca^2+ indicator fluo-4/AM (Molecular Probes, 20 μM for 30 min). Confocal images were acquired using a confocal laser-scanning microscope (LSM510, Carl Zeiss) with a Zeiss Plan-Neofluor 40× oil immersion objective (NA≈1.3). Fluo-4/AM was excited by an argon laser (488 nm), and fluorescence was measured at >505 nm. Images were taken in the line-scan mode, with the scan line parallel to the long axis of the myocytes. Each image consisted of 512 line scans obtained at 1.92 ms intervals, each comprising 512 pixels at 0.10 μm separation. Digital image analysis used customer-designed programs coded in Interactive Data language (IDL) and a modified spark detection algorithm. Cheng, H. et al., Biophys. J., 76, 606-617 (1999).
Nitroxyl (HNO) confers positive inotropy in vivo. Here, it was determined whether HNO action stems from a direct influence on sarcoplasmic reticulum (SR) Ca^2+ cycling, involving enhanced Ca^2+ release from ryanodine receptors (RyR2). Myocytes were isolated from ST mice, suspended in Tyrode's solution (1 mM Ca^2+) and field stimulated (0.5 Hz, 25° C.). Sarcomere shortening (SS) was assessed by real-time image analysis, Ca^2+ transients from Indo-1 fluorescence. RyR2 activity was determined by optical imaging of Ca^2+ release from single Ca^2+ release units. The HNO donor Angeli's Salt (AS) induced dose-dependent inotropy (SS: 73±31% at 0.5 mM; 131±31% at 1 mM; all n=15, p<0.05 vs. base; <0.1 mM: no effect). In contrast, the NO donor DEA/NO reduced SS by 55-65% at 5-50 μM (both p<0.05 vs. base), with no effect at higher doses. […] However, co-infusion with the thiol-donating compound N-acetyl-L-cysteine (NAC, 3 mM) abolished AS inotropy.

cAMP = cAMP FRET imaging in neonatal rat cardiomyocytes; type: cell-based; settings: 1 mM AS, n=23, p=NS
Experimental: Primary cultures of cardiac ventricular myocytes from 1-3 days old Sprague Dawley rats (Charles River Laboratories, Wilmington, Mass.) were prepared as described. Dostal, D. E. et al., Am. J. Physiol., 263, […]-[…] (1992). Cells were transfected with a FRET-based sensor for cAMP (Zaccolo, M. et al., Science, 295, 1711-1715 (2002)) and imaged 48 hrs after transfection. During the experiments, cells were continuously perfused with HEPES buffered Ringer's modified saline (1 mmol/LCaCl2) at room temperature. Cells were imaged on an inverted Olympus IX50 microscope upon excitation at 430 nm. Mongillo, M. et al., Circ. Res., 98, 226-234 (2006). Image analysis was performed by using ImageJ (Rasband, W. S., ImageJ, National Institutes of Health, Bethesda, Md., USA). At each time point, FRET values were measured as the 480 nm/535 nm emission ratio intensity (R) and were normalized to the 480 nm/535 nm value at time 0s (R0). Agents that increase peak Ca^2+ transients coupled to increased sarcomere shortening often do so via a rise in intracellular cAMP and subsequent activation of protein kinase A ([…]. et al., Curr. Med. Chem., 10, 967-981 (2003). To test whether this applied to AS, real-time imaging of cAMP on transfected neonatal rat cardiomyocytes was performed with a cAMP FRET-probe. Zaccolo, M. et al., Science, 295, 1711-1715 (2002). Upon exposure to 1 mM AS, the FRET signal was unchanged (0.3%±0.1%, n=23, p=NS), whereas subsequent application of norepinephrine (10 μM) or phosphodiesterase inhibitor IBMX (100 μM) both increased it by 12% (p<10^-6) (FIG. 2A). Pre-treatment of adult mouse myocytes with the PKA inhibitor […]

T1 sequence (E9Q401 whole entry): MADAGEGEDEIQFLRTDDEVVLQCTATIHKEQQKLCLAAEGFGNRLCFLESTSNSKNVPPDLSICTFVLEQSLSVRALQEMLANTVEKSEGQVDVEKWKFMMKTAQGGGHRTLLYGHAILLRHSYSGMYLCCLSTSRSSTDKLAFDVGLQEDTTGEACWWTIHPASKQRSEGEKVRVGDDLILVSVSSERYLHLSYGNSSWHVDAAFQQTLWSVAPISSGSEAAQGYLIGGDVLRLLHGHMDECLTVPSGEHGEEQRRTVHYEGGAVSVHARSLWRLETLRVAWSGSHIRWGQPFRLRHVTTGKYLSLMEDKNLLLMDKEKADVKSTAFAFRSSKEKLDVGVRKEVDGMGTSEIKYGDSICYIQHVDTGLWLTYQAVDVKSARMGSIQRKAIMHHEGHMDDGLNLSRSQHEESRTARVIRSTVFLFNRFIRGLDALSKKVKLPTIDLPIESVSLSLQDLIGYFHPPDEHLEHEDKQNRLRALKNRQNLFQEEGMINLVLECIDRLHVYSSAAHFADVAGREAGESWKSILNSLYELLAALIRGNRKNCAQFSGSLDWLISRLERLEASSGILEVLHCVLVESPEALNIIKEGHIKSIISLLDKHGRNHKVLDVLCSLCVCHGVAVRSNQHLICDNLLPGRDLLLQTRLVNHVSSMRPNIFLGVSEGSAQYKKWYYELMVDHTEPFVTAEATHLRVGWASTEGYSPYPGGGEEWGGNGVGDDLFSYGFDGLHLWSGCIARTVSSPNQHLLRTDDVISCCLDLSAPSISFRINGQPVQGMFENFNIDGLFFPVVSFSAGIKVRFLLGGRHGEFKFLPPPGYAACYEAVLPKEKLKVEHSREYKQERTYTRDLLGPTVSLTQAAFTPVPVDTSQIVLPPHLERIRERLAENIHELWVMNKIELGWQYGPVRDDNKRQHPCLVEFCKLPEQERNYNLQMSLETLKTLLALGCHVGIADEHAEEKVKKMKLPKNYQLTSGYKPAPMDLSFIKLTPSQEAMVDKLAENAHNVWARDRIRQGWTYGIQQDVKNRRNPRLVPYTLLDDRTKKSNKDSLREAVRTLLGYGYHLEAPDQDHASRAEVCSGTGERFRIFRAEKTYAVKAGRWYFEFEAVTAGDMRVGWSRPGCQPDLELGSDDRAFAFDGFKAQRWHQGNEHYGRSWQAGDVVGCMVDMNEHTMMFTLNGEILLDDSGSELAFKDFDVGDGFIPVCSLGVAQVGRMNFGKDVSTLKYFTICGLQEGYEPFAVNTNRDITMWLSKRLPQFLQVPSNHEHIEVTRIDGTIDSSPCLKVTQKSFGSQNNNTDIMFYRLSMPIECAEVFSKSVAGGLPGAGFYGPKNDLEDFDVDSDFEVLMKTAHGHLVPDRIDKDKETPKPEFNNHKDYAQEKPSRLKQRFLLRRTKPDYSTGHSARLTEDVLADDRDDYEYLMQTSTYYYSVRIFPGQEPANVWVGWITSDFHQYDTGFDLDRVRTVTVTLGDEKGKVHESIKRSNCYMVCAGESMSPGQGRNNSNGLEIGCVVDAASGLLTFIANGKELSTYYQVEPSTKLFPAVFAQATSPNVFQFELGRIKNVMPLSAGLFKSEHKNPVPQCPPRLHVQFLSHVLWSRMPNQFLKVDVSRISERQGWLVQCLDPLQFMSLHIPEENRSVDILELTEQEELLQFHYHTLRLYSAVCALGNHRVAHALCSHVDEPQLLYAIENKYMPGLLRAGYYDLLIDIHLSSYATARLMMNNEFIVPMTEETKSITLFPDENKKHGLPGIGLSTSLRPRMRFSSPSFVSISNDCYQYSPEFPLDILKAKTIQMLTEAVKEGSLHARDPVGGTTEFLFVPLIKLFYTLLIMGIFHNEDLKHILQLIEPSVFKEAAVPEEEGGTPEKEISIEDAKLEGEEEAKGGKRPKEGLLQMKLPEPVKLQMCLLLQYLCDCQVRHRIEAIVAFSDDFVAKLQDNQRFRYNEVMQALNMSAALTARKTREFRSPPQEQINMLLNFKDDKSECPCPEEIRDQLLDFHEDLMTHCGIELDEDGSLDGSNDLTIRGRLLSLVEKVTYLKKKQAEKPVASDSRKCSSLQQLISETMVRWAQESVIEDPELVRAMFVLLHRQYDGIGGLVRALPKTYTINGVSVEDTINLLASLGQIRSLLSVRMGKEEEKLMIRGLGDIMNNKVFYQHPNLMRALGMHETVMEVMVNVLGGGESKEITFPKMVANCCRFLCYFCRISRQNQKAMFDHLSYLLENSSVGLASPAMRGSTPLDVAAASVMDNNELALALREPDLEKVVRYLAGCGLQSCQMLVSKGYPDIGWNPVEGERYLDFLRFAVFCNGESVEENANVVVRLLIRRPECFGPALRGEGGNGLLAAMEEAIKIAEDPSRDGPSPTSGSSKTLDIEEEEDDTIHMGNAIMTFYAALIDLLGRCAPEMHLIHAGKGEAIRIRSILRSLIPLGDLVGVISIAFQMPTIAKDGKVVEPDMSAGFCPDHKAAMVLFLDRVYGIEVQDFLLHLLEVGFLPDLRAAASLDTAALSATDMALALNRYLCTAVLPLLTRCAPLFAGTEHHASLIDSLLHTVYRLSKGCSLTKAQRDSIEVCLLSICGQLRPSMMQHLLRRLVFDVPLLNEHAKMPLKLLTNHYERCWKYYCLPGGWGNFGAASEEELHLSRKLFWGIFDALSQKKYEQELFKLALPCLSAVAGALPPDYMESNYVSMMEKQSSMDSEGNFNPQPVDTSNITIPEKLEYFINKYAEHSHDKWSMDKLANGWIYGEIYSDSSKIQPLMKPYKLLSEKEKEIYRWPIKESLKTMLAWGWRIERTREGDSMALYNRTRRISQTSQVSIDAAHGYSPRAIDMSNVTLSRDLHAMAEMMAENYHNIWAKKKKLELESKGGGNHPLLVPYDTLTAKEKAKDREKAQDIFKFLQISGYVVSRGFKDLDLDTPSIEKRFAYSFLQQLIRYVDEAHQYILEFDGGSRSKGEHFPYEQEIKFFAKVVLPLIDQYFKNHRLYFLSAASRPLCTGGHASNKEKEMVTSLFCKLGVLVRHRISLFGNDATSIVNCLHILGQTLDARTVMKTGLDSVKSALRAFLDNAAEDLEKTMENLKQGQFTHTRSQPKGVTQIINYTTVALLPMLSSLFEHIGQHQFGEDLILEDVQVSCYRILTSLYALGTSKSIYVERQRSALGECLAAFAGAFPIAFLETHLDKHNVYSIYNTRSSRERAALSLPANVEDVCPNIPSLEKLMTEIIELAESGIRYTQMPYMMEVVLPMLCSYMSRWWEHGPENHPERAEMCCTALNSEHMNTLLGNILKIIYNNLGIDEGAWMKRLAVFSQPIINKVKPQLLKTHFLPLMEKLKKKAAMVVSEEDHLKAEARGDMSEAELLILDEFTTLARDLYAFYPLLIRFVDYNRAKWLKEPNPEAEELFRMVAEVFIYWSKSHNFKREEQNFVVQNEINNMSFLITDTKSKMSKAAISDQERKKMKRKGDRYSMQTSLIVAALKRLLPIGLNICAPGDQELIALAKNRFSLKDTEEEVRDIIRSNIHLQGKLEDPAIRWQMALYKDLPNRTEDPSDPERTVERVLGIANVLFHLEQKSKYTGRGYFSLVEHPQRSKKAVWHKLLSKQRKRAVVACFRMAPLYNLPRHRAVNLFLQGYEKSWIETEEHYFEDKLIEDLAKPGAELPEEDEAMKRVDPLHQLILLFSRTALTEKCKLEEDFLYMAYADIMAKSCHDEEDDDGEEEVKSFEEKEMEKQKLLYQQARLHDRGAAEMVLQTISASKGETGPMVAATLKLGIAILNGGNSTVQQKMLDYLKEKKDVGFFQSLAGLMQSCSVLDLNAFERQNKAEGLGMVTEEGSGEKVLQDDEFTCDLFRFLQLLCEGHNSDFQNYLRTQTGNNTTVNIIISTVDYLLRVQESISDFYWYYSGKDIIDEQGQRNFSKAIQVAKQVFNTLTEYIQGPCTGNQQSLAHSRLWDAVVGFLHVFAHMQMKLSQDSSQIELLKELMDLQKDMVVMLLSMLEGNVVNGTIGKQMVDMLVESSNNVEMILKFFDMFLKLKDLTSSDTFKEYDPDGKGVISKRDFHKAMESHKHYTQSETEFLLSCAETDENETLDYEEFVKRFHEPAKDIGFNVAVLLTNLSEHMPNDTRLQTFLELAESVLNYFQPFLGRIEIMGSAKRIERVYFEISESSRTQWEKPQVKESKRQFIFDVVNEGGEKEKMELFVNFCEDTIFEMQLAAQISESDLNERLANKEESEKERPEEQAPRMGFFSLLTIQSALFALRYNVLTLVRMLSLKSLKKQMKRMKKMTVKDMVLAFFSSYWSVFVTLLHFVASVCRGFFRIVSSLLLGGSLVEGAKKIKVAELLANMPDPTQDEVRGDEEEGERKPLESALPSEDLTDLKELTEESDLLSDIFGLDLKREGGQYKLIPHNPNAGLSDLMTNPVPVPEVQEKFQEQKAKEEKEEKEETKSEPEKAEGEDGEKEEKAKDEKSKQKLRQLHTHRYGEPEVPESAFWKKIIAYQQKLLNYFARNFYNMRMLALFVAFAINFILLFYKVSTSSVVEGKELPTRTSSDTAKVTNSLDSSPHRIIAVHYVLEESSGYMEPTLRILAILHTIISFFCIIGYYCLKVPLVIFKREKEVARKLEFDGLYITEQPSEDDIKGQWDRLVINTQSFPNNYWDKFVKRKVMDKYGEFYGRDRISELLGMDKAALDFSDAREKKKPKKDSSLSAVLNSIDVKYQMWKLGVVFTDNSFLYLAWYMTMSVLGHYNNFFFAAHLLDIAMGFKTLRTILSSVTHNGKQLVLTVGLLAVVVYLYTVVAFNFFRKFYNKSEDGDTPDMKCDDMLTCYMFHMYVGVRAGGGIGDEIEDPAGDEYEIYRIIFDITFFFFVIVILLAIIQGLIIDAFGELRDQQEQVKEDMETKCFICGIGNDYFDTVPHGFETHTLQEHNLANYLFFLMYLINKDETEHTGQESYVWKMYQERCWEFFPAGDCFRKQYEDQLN

[Na+].[Na+].[O-][N+]([O-])=NO [AS, Angeli's salt]
calcium spark frequency relative to controls (RyR2; 0.5 mM AS): ~7 times | increase of calcium spark frequency (RyR2; 0.5 mM AS): 7 fold | frequency of calcium sparks (CSF) (RyR2; 0.5 mM AS, controls 4±1): 26±3 sparks/100 μm/s | rise in Ca2+ spark frequency (RyR2; 1 mM AS, n=10-24): 18 fold | individual spark amplitude, rise time and spatial width (RyR2; AS): unaltered | AS-induced increase in spark frequency after thiol (GSH) pre-treatment (RyR2; reduced glutathione preincubation before AS): prevented; also recorded: abrogated | change of cAMP FRET signal (cAMP): 0.3%±0.1%
